Test results from patent publication US7348305B2, “Inhibitor of cardiac tachyarrhythmias” (Department of Veterans Affairs, Rehabilitation, priority 2003, dated 2008).
“Also recorded” adds a separate entry of the source.

Tested on: ventricular tachyarrhythmias following LAD coronary artery ligation
Assay: Model 1: two-stage LAD coronary artery ligation, Holter EKG monitoring 2-24 hr (ventricular triplets, sustained VT/VF, death)
Assay type: in vivo, dog
Protocol: The two-stage ligation procedure results in a very low incidence of ventricular fibrillation (<5-10%) during the initial 6 hours following coronary artery occlusion (Harris et al., 1951). Almost all ventricular fibrillation occurs during the initial 30 minutes with a high proportion of successful defibrillation. Ambulatory EKG monitoring is performed over the 2-24 hr period following coronary artery ligation. During the 6-24 hr period, a 25-40% incidence of rapid monomorphic ventricular tachycardia (385±15/min) leading to ventricular fibrillation is observed at 13.3±0.8 hours post-LAD ligation (FIG. 1), with a mean duration of monomorphic ventricular tachycardia preceding ventricular fibrillation of 66±7 sec. When provocative ventricular pacing is performed at 24 hours, however, the reentrant substrate supporting sustained ventricular tachycardia is present in more than 80% of the surviving dogs with no difference in rate between spontaneous and pacing-induced sustained monomorphic ventricular tachycardias (FIG. 3).
In the 24-hr Infarct (Model 1) Studies, each control and etanercept pretreated animal was monitored for ventricular arrhythmias using a Holter 2-lead recording for the duration of time following LAD ligation. […] In the saline control group, 4 animals died at 11-24 hours post ligation. […]
Model 1: Electrophysiologic correlates of myocardial infarction over a 24-hr period. Eighteen 15-22 kg male mongrel dogs were anesthetized with IV sodium pentobarbital (30 mg/kg). A cuffed endotracheal tube was inserted and the animals were ventilated with room air using a volume-cycled respirator. […] The dogs were extubated and allowed to awaken in a temperature-controlled, humidified small animal post-operative recovery unit. They were given nalbuphine 0.2 mg/kg for post-operative analgesia. During the 2-24 hr period following LAD ligation, Holter monitoring was performed and the two-lead EKG was recorded on magnetic tape. Dogs were re-anesthetized with sodium pentobarbital at 24-hr. The thoracotomy was reopened and the heart was removed and perfused with ice-cold Tyrode's buffer via the left main coronary artery. The outer 0.5-1.5 mm EBZ tissue overlying the infarct was shaved and a longitudinal sample of tissue from the LAD region was stained with triphenyltetrazolium chloride (0.1%) to determine viability of the EBZ. Triphenyltetrazolium (TTZ) forms a brick-red precipitate in the presence of active intracellular dehydrogenases, delineating vital tissue. Non-viable tissues are not stained and remain a pale color. […] Tissue samples from the RS, the EBZ and the infarct tissue were dissected rapidly on an ice-cold surface, placed in freezer vials, and frozen in liquid nitrogen. These samples were then stored at −70° C. for later assay.
EKG Analysis: Full disclosure EKG records were obtained at 10 mm/sec for the entire 2-24 hour post-occlusion period. All measurements and calculations were made by direct visual observation and manual counting.
Anti-TNFα Treatment: A dosage of 2 mg/kg hTNFR:Fc (supplied as etanercept, Amgen, Inc, Thousand Oaks, Calif.) or saline were injected IV into a forepaw vein at 24-hr and again 1-hr prior to LAD ligation. […] This dosage was used after consultation with the pharmaceutical corporate pharmacology section and based on unpublished internal data that this dosage would provide maximal sequestration of tissue and circulating TNFα.

Substance: etanercept
- fastest ventricular triplet rate observed per hour after LAD ligation (FIG. 18, FIG. 32) (4 to 24 hr after LAD ligation): significant reduction
- mortality (dogs died of group) (24 hr after LAD ligation, etanercept 2 mg/kg at -24 and -1 hr, bortezomib 0.0875 mg/kg at -1 and +6 hr, anakinra 10 mg/kg at -1 and +12 hr, control 4 of 10, preliminary): 0 of 8
- frequency of very rapid (≧360 bpm) ventricular triplets (etanercept 2 mg/kg IV 24 and 1 hr before LAD ligation, 4-24 hr (2 to 24 hr) after ligation, n=8, saline 21±6/hr): 6 ± 1 h⁻¹
- average frequency of total rapid (≧300 bpm) ventricular triplets (etanercept 2 mg/kg IV 24 and 1 hr before LAD ligation, n=8, saline 152±32/hr): 45 ± 8 h⁻¹
- very rapid (≧360 bpm) ventricular triplets versus control (FIG. 31B) (etanercept 2 mg/kg, bortezomib 0.0875 mg/kg): significant descrease; also recorded: significant decrease
- rapid (>300 bpm) ventricular triplets per hour versus control (FIG. 31A) (etanercept 2 mg/kg, bortezomib 0.0875 mg/kg, anakinra 10 mg/kg): significant descrease
- idioventricular heart rate on EKG (etanercept-treated dogs versus saline, after LAD ligation (FIG. 16B)): slower idioventricular heart rate
- development of sustained ventricular tachycardia or fibrillation (etanercept-treated dogs, four saline-treated dogs developed it at 11-24 hours post ligation): no etanercept-treated dogs developed sustained ventricular tachycardia or fibrillation
